Experiments:
Test in all cases: relative viability (nuclei count vs DMSO), 5 days (fraction); higher = more cells survive
Omipalisib = compound: COc1ncc(-c2ccc3nccc(-c4ccnnc4)c3c2)cc1NS(=O)(=O)c1ccc(F)cc1F [Omipalisib]
Outline: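 Lung cancer cell lines were seeded into 1536-well plates, kept overnight at 37 °C and pinned with five library-drug doses (not always all listed) spaced by √10. After 5 days, nuclei were Hoechst-stained, imaged at 4× and counted with MetaXpress. Viability is treated-well nuclei over vehicle-well nuclei, taken as a median across plates. Plates needed control CV below 25% and at least one doubling.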

Omipalisib + Palbociclib = compound: COc1ncc(-c2ccc3nccc(-c4ccnnc4)c3c2)cc1NS(=O)(=O)c1ccc(F)cc1F [Omipalisib] + CC(=O)c1c(C)c2cnc(Nc3ccc(N4CCNCC4)cn3)nc2n(C2CCCC2)c1=O [Palbociclib] (partner 0.5 µM)
Outline: (§1)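 After 5 days of treatment, lung cancer cells in 1536-well plates were fixed and stained in a single step (final 0.05% Triton X-100, 1% formaldehyde, 1 ug/ml Hoechst) and their nuclei counted on 4× images. Treatment had been applied by pin tool the day after seeding as one drug alone or as a fixed anchor-drug dose with five library-drug doses (not always all listed) in √10 steps. Relative viability is the nuclei count of treated wells divided by that of vehicle wells, and values are medians of duplicate plates.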

Omipalisib + Lapatinib = compound: COc1ncc(-c2ccc3nccc(-c4ccnnc4)c3c2)cc1NS(=O)(=O)c1ccc(F)cc1F [Omipalisib] + CS(=O)(=O)CCNCc1ccc(-c2ccc3ncnc(Nc4ccc(OCc5cccc(F)c5)c(Cl)c4)c3c2)o1 [Lapatinib] (partner 2 µM)
Outline: as §1

Omipalisib + Pictilisib = compound: COc1ncc(-c2ccc3nccc(-c4ccnnc4)c3c2)cc1NS(=O)(=O)c1ccc(F)cc1F [Omipalisib] + CS(=O)(=O)N1CCN(Cc2cc3nc(-c4cccc5[nH]ncc45)nc(N4CCOCC4)c3s2)CC1 [Pictilisib] (partner 1 µM)
Outline: as §1

Omipalisib + Tozasertib = compound: COc1ncc(-c2ccc3nccc(-c4ccnnc4)c3c2)cc1NS(=O)(=O)c1ccc(F)cc1F [Omipalisib] + Cc1cc(Nc2cc(N3CCN(C)CC3)nc(Sc3ccc(NC(=O)C4CC4)cc3)n2)n[nH]1 [Tozasertib] (partner 0.1 µM)
Outline: as §1

Omipalisib + Dasatinib = compound: COc1ncc(-c2ccc3nccc(-c4ccnnc4)c3c2)cc1NS(=O)(=O)c1ccc(F)cc1F [Omipalisib] + Cc1nc(Nc2ncc(C(=O)Nc3c(C)cccc3Cl)s2)cc(N2CCN(CCO)CC2)n1 [Dasatinib] (partner 0.075 µM)
Outline: as §1

Cell Line	relative viability (Omipalisib; 0.0003 µM)	relative viability (Omipalisib; 0.003 µM)	relative viability (Omipalisib; 0.03 µM)	relative viability (Omipalisib + Palbociclib; first compound 0.0003 µM)	relative viability (Omipalisib + Palbociclib; first compound 0.003 µM)	relative viability (Omipalisib + Palbociclib; first compound 0.03 µM)	relative viability (Omipalisib + Lapatinib; first compound 0.0003 µM)	relative viability (Omipalisib + Lapatinib; first compound 0.003 µM)	relative viability (Omipalisib + Lapatinib; first compound 0.03 µM)	relative viability (Omipalisib + Pictilisib; first compound 0.0003 µM)	relative viability (Omipalisib + Pictilisib; first compound 0.003 µM)	relative viability (Omipalisib + Pictilisib; first compound 0.03 µM)	relative viability (Omipalisib + Tozasertib; first compound 0.0003 µM)	relative viability (Omipalisib + Tozasertib; first compound 0.003 µM)	relative viability (Omipalisib + Tozasertib; first compound 0.03 µM)	relative viability (Omipalisib + Dasatinib; first compound 0.0003 µM)	relative viability (Omipalisib + Dasatinib; first compound 0.003 µM)	relative viability (Omipalisib + Dasatinib; first compound 0.03 µM)
NCI-H1975	0.911	0.672	0.374	0.669	0.248	0.173	0.801	0.613	0.22	0.321	0.277	0.193	0.786	0.502	0.23	0.33	0.249	0.113
NCI-H1993	0.806	0.632	0.623	0.547	0.391	0.393	0.812	0.809	0.588	0.837	0.861	0.912	0.575	0.5	0.499	0.498	0.545	0.486
NCI-H2009	1.06	1.02	0.755	0.204	0.176	0.179	0.997	0.943	0.581	0.752	0.797	0.52	0.796	0.674	0.607	0.272	0.215	0.157
NCI-H2023	0.847	0.535	0.203	0.383	0.213	0.0832	0.684	0.374	0.179	0.204	0.181	0.179	0.309	0.282	0.151	0.446	0.213	0.114
NCI-H2085	0.987	1.01	0.495	0.553	0.479	0.33	0.838	0.571	0.382	0.416	0.474	0.436	0.905	0.693	0.361	0.258	0.194	0.227
NCI-H2087	1.02	0.723	0.504	0.247	0.219	0.146	1.34	0.955	0.747	0.916	0.692	0.739	0.243	0.224	0.126	0.8	0.566	0.614
NCI-H2126	0.972	0.687	0.495	0.344	0.344	0.317	0.759	0.46	0.374	0.518	0.463	0.435	0.712	0.612	0.353	0.545	0.366	0.301
NCI-H2170	0.813	0.608	0.587	0.301	0.236	0.173	0.221	0.257	0.257	0.3	0.137	0.278	0.607	0.482	0.354	0.517	0.426	0.453
NCI-H2228	0.858	0.682	0.352	0.839	0.47	0.234	0.993	0.697	0.291	0.41	0.265	0.407	0.343	0.171	0.126	0.43	0.275	0.133

From the supplement of paper PMC10307832
